Results on 4 compounds are retold here after patent US11591323B2, “Muscarinic agonists as non-steroidal and non-opioid analgesics and methods of use thereof” (Barry University, priority 2019, dated 2023).

What all share (type): cell-based
One assay concerns the target M3 muscarinic receptor (Homo sapiens, UniProt P20309). The experiment in a line: accumulation of IPX, M3 CHO cells transfected with G15 (M3Gq+G15). Set-up: host or cells: CHO cells. As for the experimental part:
(§1) To determine level of cAMP, cells in suspension were pre-incubated for 1 h with 0.4 μM [^3H]adenine, washed, and incubated for 10 min in the presence of isobutylmethylxanthine and 10 μM forskolin. […] Incubation was ended by addition of 0.2 ml of 2.5 M HCl to the samples. Samples were applied to alumina columns (1.5 g of alumina per column), washed with 2 ml ammonium acetate (pH=7.0) and eluted from columns with 4 ml ammonium acetate and measured by liquid scintillation spectrometry. […] The incubation was stopped by addition of 0.5 ml of chloroform methanol HCl mixture (2:1:0.1). After separation of water and organic phases, 0.6 ml of water phase was applied to Dowex columns (1.5 g of Dowex per column), washed by 20 ml of 60 mM ammonium formate/5 mM sodium borate buffer and eluted from columns with 4 ml of 1M ammonium formate/0.1 formic acid buffer and measured by liquid scintillation spectrometry.
(§2) Measurements of the production of cAMP and inositol phosphates: Levels of second messengers cAMP and inositol phosphates were determined in radiochemical chromatography assays as described previously. To determine level of cAMP, cells in suspension were pre-incubated for 1 h with 0.4 μM [^3H]adenine, washed, and incubated for 10 min in the presence of isobutylmethylxanthine and 10 μM forskolin. […] Incubation was ended by addition of 0.2 ml of 2.5 M HCl to the samples. Samples were applied to alumina columns (1.5 g of alumina per column), washed with 2 ml ammonium acetate (pH=7.0) and eluted from columns with 4 ml ammonium acetate and measured by liquid scintillation spectrometry. […] For this purpose, new CHO cell lines stably expressing promiscuous G15 G-protein and M2 or M4 receptor were generated by transfection with pCMV/hygro vector and hygromycin selection. To determine the rate of formation of inositol phosphates IPX, suspended cells were pre-incubated with 0.1 μM [^3H]myo-inositol for 60 min, washed, and incubated with 10 mM LiCl for 15 min. […] The incubation was stopped by addition of 0.5 ml of chloroform methanol HCl mixture (2:1:0.1). After separation of water and organic phases, 0.6 ml of water phase was applied to Dowex columns (1.5 g of Dowex per column), washed by 20 ml of 60 mM ammonium formate/5 mM sodium borate buffer and eluted from columns with 4 ml of 1M ammonium formate/0.1 formic acid buffer and measured by liquid scintillation spectrometry.
(§3) For bi-phasic response, curves were inhibitory and stimulatory phase were fitted separately. Operational Model of Functional Agonism
(§4) [formula] where y is functional response at concentration of tested compound x, EMAX is maximal response of the system, KA is equilibrium dissociation constant and nH is slope factor. Eq. 5 was fitted to data from functional experiments. Eq. 5 was fitted to data by the two-step procedure described earlier. […] In the second step, Eq. 5 with EMAX fixed to the value determined in the first step was fitted to individual experimental data sets. Relative Intrinsic Activity

In the next assay the test system is cerebellum (M2 rich). The experiment in a line: forskolin-stimulated cAMP in dissipated rat cerebellum. The conditions noted are these: in words. As for the experimental part:
Effects of compounds 6A and 7A were then measured ex vivo in dissipated rat tissues (FIG. 5). Accumulation of IPX was measured in dissipated brain cortex (rich in M1 & M3), submaxillary gland (M1 & M3), and ventral tegmental area (M5). Native tissues express about 10-times less muscarinic receptors than CHO cell lines. Accumulation of cAMP was measured in cerebellum (M2) and striatum (M4).
Rat dissipated tissues: Suspension of dissipated tissues from rat brain cortex, cerebellum, striatum, ventral tegmental area (VTA) and submaxillary glands was prepared as described previously in supplementary methods. Adult 8-weeks old male Wistar rats were scarified by cervical dislocation in accordance with current legislative and guidelines under permission of Czech Ministry of Agriculture 16OZ23113/2017-17214. Tissues were dissected immediately. Submaxillary glands were minced by scissors. Tissues were dispersed by incubation for 15 min at 37° C. in KHB supplemented with trypsin and trituration every 5 min. Large undissipated parts were removed by cell mesh. Then dissipated tissues were centrifuged 3 min at 250×g, re-suspended in KHB and centrifuged again to remove trypsin. Suspension of dissipated tissues was used immediately in experiments. Two submaxillary glands or about 400 mg of brain tissue was used a 96-sample assay.
as §2
To exclude the possibility that the observed effects of compounds 6A and 7A are the result of overexpression in the heterologous system, functional response to the compounds was measured ex vivo in dissipated native rat tissues. […] Accumulation of IPX was measured in brain cortex, submaxillary gland, and ventral tegmental area (VTA) as brain cortex and submaxillary glands are rich in M1 and in M3 receptors, respectively, and VTA is the only region expressing significant amount of M5 receptors. Accumulation of cAMP was measured in M2-rich cerebellum and M4-rich striatum.

A further assay deals with T1, M2 muscarinic receptor (Homo sapiens, UniProt P08172).
T1 sequence (P08172 1-466): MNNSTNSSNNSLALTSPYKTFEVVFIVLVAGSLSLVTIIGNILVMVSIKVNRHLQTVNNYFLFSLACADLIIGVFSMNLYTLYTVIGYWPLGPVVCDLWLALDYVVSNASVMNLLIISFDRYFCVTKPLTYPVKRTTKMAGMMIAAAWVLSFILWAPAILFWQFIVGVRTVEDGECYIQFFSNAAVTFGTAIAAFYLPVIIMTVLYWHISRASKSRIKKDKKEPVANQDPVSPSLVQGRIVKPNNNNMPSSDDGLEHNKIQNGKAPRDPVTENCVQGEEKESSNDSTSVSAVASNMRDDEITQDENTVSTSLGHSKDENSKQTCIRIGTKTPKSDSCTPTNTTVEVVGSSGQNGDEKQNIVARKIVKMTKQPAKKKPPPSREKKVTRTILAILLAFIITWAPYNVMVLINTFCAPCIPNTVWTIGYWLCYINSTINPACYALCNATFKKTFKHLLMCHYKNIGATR
The experiment in a line: accumulation of IPX, M2 CHO cells with promiscuous G15 G-protein (M2Gq+G15). Set-up: expressed in transfected cells; host or cells: CHO cells, pCMV/hygro vector, hygromycin selection. The conditions noted are these: for RAi / E′MAX / τ / Δlog(τ/KA): M2Gq ± G15 (↑IPX); for RAi: Table 8, relative to carbachol; for accumulation of IPX: M2 co-transfected with G15, in words; for E′MAX / τ: Table 8; for Δlog(τ/KA): Table 8, to carbachol. The method, then: Since activation of phospholipase C (PLC) via M2 and M4 receptors is weak, cells were transferred with G15 G-protein to facilitate coupling.
as §1, §2, §3, §4
Muscarinic receptors are also able to stimulate non-preferential signalling pathways.

Where [1] appears, read: M3Gq + G15 (↑IPX), Table 8, relative to carbachol.
The mark [2] stands for this setting: M3Gq + G15 (↑IPX), Table 8, to carbachol.
Where [3] appears, read: M3Gq + G15 (↑IPX), Table 8, read-out: pEC50 (converted).
[4] abbreviates: M3Gq + G15 (↑IPX), Table 8, read-out: pKA (converted).

Each structure is given as a SMILES string. Entries after “also recorded” stand apart in the source; their conditions may differ. Like-named read-outs stand apart in the source and are kept apart here.

Chain of M3 muscarinic receptor (P20309 whole entry): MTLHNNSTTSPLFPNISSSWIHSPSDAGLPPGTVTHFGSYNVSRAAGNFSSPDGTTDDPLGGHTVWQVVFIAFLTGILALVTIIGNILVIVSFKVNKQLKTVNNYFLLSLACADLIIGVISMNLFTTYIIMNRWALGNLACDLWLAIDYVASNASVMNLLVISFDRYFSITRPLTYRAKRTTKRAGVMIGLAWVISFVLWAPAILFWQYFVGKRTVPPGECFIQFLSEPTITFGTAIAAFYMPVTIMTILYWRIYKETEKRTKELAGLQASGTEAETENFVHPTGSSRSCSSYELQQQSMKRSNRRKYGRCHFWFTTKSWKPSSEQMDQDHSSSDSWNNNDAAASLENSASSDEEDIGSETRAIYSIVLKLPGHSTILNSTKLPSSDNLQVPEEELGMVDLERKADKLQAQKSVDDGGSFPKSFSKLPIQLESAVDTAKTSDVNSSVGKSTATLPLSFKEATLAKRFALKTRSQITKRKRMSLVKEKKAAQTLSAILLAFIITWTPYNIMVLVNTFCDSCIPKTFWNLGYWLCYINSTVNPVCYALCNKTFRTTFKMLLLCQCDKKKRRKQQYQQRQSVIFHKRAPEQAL

With `C1=CCN(Cc2cccs2)CC1.Cl` [Compound 6A, 1-[(thiophen-2-yl)methyl]-1,2,3,6-tetrahydropyridin-1-ium chloride], on M3 muscarinic receptor (M3Gq + G15 (↑IPX), Table 8), the “E′MAX” value stood at 2.5 ± 0.2 fold over basal and the τ is reported as 0.06 ± 0.01. Also, the RAi at M3 muscarinic receptor (setting [1]) turned out to be 0.0058 ± 0.0005. In addition, the “Δlog(τ/KA)” value on M3 muscarinic receptor (setting [2]) stood at 2.23 ± 0.23. Also, on M3 muscarinic receptor (setting [3]), the EC50 is 5010 nM. For the same compound, the Kd on M3 muscarinic receptor (setting [4]) was 5010 nM. Besides, in the assay on cerebellum (M2 rich), the “Emax of inhibition of cAMP synthesis” value is “comparable to inhibition by carbachol” and the “forskolin-stimulated cAMP level” value is recorded as “only a decrease in cAMP level”. Further, on M2 muscarinic receptor, the RAi came out at 0 and the “accumulation of IPX” value is given as “did not stimulate IPX accumulation”.

Take `C[N+]1(Cc2cccs2)CC=CCC1.[I-]` (stereo not shown) [Compound 7A, 1-methyl-1-[(thiophen-2-yl)methyl]-1,2,3,6-tetrahydropyridin-1-ium iodide]: on M3 muscarinic receptor (M3Gq + G15 (↑IPX), Table 8), the “E′MAX” value was determined as 3.0 ± 0.3 fold over basal and the τ was 0.08 ± 0.01. For the same compound, the RAi on M3 muscarinic receptor (setting [1]) stood at 0.011 ± 0.001. The “Δlog(τ/KA)” value on M3 muscarinic receptor (setting [2]) is 1.94 ± 0.20. Also, the EC50 at M3 muscarinic receptor (setting [3]) was 3160 nM. Besides, at M3 muscarinic receptor (setting [4]), the Kd is 3160 nM. Further, in the assay with cerebellum (M2 rich), the “Emax of inhibition of cAMP synthesis” value is reported as “comparable to inhibition by carbachol” and the “forskolin-stimulated cAMP level” value is given as “only a decrease in cAMP level”. Besides, on M2 muscarinic receptor, the RAi was found to be 0 and the “accumulation of IPX” value is on record as “did not stimulate IPX accumulation”.

`C[N+](C)(C)CCOC(N)=O` [carbachol, reference compound]: in the assay on cerebellum (M2 rich), the “forskolin-stimulated cAMP level” value is “transient decrease in forskolin-stimulated cAMP level at nanomolar concentrations followed by an increase at micromolar concentrations; also recorded: transient decrease in forskolin-stimulated cAMP level at sub-micromolar concentrations followed by an increase at micromolar concentrations”. Further, at M2 muscarinic receptor, the “E′MAX” value stood at 4.9 ± 0.3 fold over basal, the τ is 4.5 ± 0.5, the “Δlog(τ/KA)” value is recorded as 0 and the “accumulation of IPX” value was “stimulated accumulation of IPX”.

On to `O=C1CCCN1CC#CCN1CCCC1` [oxotremorine, reference compound], for which, at M3 muscarinic receptor, the EC50 is 100 nM, the “E′MAX” value was 22 ± 2 fold over basal, the Kd was 398 nM and the RAi turned out to be 4.14 ± 0.38. Further, at M3 muscarinic receptor, the “Δlog(τ/KA)” value is given as −0.62 ± 0.06 and the τ is 2.9 ± 0.3. At M2 muscarinic receptor, the EC50 was 70.8 nM, the Kd is 200 nM, the “E′MAX” value is recorded as 4.1 ± 0.3 fold over basal and the τ turned out to be 1.9 ± 0.2. Further, on M2 muscarinic receptor, the RAi was determined as 2.41 ± 0.22 and the “Δlog(τ/KA)” value was −0.38 ± 0.05.
